Experimental data from patent publication US20220194989A1, “SUPRAMOLECULAR POLYPEPTIDE COMPOSITIONS AND METHODS OF MAKING AND USING THE SAME” (Duke University, priority 2019, published 2022).
Like-named read-outs stand apart in the source and are kept apart here. Where no end group is shown, it is not given here.

Tests used:
RAW264.7 macrophages = assay: alamarBlue cell viability assay; details: 0.2-200 μM, compared to untreated cells
DC2.4 dendritic cells = assay: alamarBlue cell viability assay; details: 0.2-200 μM, compared to untreated cells
mice [1] = assay: Footpad swelling after footpad injection; details: single footpad injection, measured over 72 hours, compared to PBS
Method: (§1) (a) Footpad swelling measured 3, 6, 12, 24, 48, and 72 hours following a single footpad injection of (KEYA)20Q11 (red), Alum (dark gray), or PBS (light gray) and subtracted from baseline measurements. […] Mean+/−s.e.m. shown. n=3-5 experimental replicates per group.
(§2) Mice were injected sub-dermally on the back-right footpad with (KEYA)20Q11, Alum, or PBS to determine extent of inflammation caused by the nanomaterial (FIG. 7a). […] Footpad swelling was measured over the course of 72 hours and normalized to a pre-injection footpad thickness measurement.

influenza = assay: Unpublished studies of NP-Q11 flu epitope; assay type: in vivo
[2] = design: species or system mice; details: mouse, in vivo; for persistence at the injection site (average days fluorescence detected): sc
Excerpt: Persistence at the injection site.

splenocytes = assay: Flow cytometry of splenocytes after s.c. immunization; assay type: in vivo, mice; details: spleens 5 days after last boost; for CD4+CD25hi T cells (Tregs): versus PBS
Excerpt: FIG. 8. […] (a) Cartoon of s.c. immunization schedule with either (KEYA)20Q11 (red), Q11 (blue), PBS (gray). Spleens were harvested at week 6. Percent of (b) CD3+ cells and (c) CD3+IL4+ cells from total number of live cells. Percent of (d) CD4+ cells and (e) CD4+IL4+ cells from total number of CD3+ cells. […] Mean+/−s.e.m. shown. n=4-5 experimental replicates per group.
Mice were immunized and boosted twice with (KEYA)20Q11, Q11, or PBS ([…]) and their spleens were harvested 5 days after the last boost. After the splenocytes were stimulated overnight with their immunizing peptide, cells were stained and taken to flow cytometry for analysis.

[3] = cited from earlier work
DC2.4 cells = assay: Confocal microscopy of nanofiber internalization; assay type: cell-based; details: after 24 hours
Dendritic cells = assay: In vivo APC uptake of fluorescent nanofibers after i.p. injection; design: species or system mice; details: 2 hours
local macrophages = assay: as above; design: species or system mice; details: 2 hours
mice [4] = assay: Multiplex cytokine analysis of lavage fluid after i.p. injection; assay type: in vivo; details: for IFNγ in lavage fluid / IL1β in lavage fluid / IL6 in lavage fluid: 2-hour i.p. stimulation, versus PBS
Excerpt: Immune activation is not mediated by inflammation.

[5] = tested on: lymphocytes from draining lymph nodes; assay: ELISpot on draining lymph nodes restimulated with immunizing peptide; assay type: in vivo, mice; details: for induction of antibody and T cell responses: summary of antibody and ELISpot results
mice [6] = assay: Immunization with four (KEYA)nQ11 lengths, anti-immunizing peptide IgG titers; assay type: in vivo
mice [7] = details: mouse, in vivo
Method: as §1, §2

[8] = mouse, in vivo
Method: Mice injected with TAMRA labeled Q11 on the left flank and (KEYA)20Q11 on the right were (a) measured with IVIS immediately after injection and daily for 7 days. (b) The number of days the fluorescence was detected was graphed to compare the persistence between the two groups. (c) The radiant efficiency was calculated from the images collected and graphed on a log 10 scale. (d) Total amount of remaining nanofiber and (e) overlap between nanofibers and CD45+ cells calculated from confocal images. (f) Representative confocal images from injection site skin collected on Day 7.
Persistence at the injection site. […] Uptake by APCs occurs primarily at the s.c. injection site, so we used IVIS to image mice injected with fluorescently labeled nanofibers over the course of a week. Mice were injected with Q11 on their left flank and (KEYA)20Q11 on their right (FIG. 9a) and images were taken daily to measure the retention of each nanomaterial at the injection site. […] Skin sections were taken of the injection site on day 7 and stained with CD45, a common lymphocyte marker, and DAPI, a common cell nuclei stain (FIG. 9d-f).

[9] = tested on: Lymphocyte populations purified from spleens; assay: ELISpot after immunization with (KEYA)20Q11 co-assembled with PADREQ11; assay type: in vivo, mice; details: co-assembled with 2.5% PADREQ11; 3.5 weeks
Method: FIG. 6. (KEYA)20Q11 can enhance the T cell stimulatory capabilities of other T and B cell epitopes. (a) ELISpot from mice immunized and boosted with nanofiber formulations containing 2.5% PADREQ11 and either 97.5% (dark red), 2.5% (light red), or 0% (gray) (KEYA)20Q11 co-assembled with Q11 into a 2 mM nanofiber. […] (b) ELISpot from mice immunized and boosted with nanofiber formulations containing 50% NPQ11 and either 50% (red), or 0% (gray) (KEYA)20Q11 co-assembled with Q11 into a 2 mM nanofiber. […] (c) Cartoon of immunization schedule for figures (d) and (e). All groups contained 50% TNFQ11 (d) anti-TNF IgG antibody titers for groups described in (c). (e) anti-TNF IgG1 and IgG2c antibodies. *p<0.05, **p<0.01, ***p<0.001 by 2way ANOVA with Sidak's post hoc test.
Enhancement of co-assembled T and B cell epitopes. Having characterized (KEYA)20Q11 and the subsequent humoral and cellular responses, the inventors tested the hypothesis that co-assembling (KEYA)20Q11 with other epitopes may enhance the response to the co-assembled epitope. Previous work has established a method for ensuring co-assembly of multiple epitopes onto a single nanofiber^38. Highlighting an advantage of the Q11 system, we were able to systematically add and titrate co-assembled (KEYA)20Q11 with a variety of T and B cell epitopes to investigate the resulting magnitude of immune responses. […]

[10] = tested on: purified lymphocyte populations from spleens; assay: ELISpot after immunization with (KEYA)20Q11 co-assembled with NP-Q11; assay type: in vivo, mice; details: week 3.5
mice [11] = assay: Immunization with Q11 nanofibers containing 1-50% (KEYA)20Q11, anti-p(KEYA)20 IgG titers; assay type: in vivo; details: 2 mM total formulation with Q11, boosted every 2.5 weeks
Method: FIG. 5. Titration of (KEYA)20 component modulates the strength of engagement with APCs and humoral immunity while maintaining a Type 2 T cell phenotype. Uptake of TAMRA labeled (KEYA)20Q11 in (a) DC2.4 dendritic cells, RAW264.7 macrophages, and B-LCL human B cells stimulated for 0.1, 0.5, 2, 24, and 72 (B cells only) hours measured by flow cytometry. 100% refers to the molar percent of (KEYA)20 incorporated into a 2 mM Q11 nanofiber. 10% indicates 10% (KEYA)20Q11 and 90% Q11, while 0% indicates the entire nanofiber contains only Q11. All groups included 2.5% fluorescent TAMRA-Q11. (b) Representative confocal images of fluorescent Q11 and (KEYA)20Q11 stimulated DC2.4 cells. Nanofibers seen in red, cell nuclei in blue, and cell borders in green. […] (c) Populations of mouse APCs containing nanofibers collected 12 hours after i.p. injection. (d) Cartoon indicating the boosting schedule and graph of the anti-p(KEYA)20 IgG antibody titers. 50% (KEYA)20 is represented darkest red, 33% (KEYA)20 in the second darkest, 10% (KEYA)20 in the second lightest, and 1% (KEYA)20 in the lightest color. Week 16 IgG1 and IgG2c isotypes are shown in (e), (KEYA)20 only produces an IgG1 response when at 33% and 50%. […]

[12] = Nanofiber formation (AFM, ThT binding); assay type: physicochemical; details: physiological conditions
[13] = 12-hour i.p. stimulation, compared to PBS

With `C[S+](C)[O-]` [DMSO] the “cell viability (health of the macrophages)” value (RAW264.7 macrophages) was “dose dependent cytotoxic response” and the “cell viability (health of the dendritic cells)” value (DC2.4 dendritic cells) was “dose dependent cytotoxic response”.

For Alum, the footpad swelling (mice [1]) was “significantly larger swelling”.

With “NH2-QVYSLIRPNENPAHK SGSG QQKFQFQFEQQ-Am (H-QVYSLIRPNENPAHKSGSGQQKFQFQFEQQ-NH2; also: linked to (KEYA)20Q11) [NP-Q11]” the “protection against an influenza challenge” value (influenza; unpublished studies) was “does not raise strong enough responses to be protective” and the “T cell response phenotype” value (influenza; unpublished work) was “IFNγ biased T cell responses”.

For “QQKFQFQFEQQ (Synthetic- KEYA Q11) [unmodified nanofiber, reference compound]”, the “persistence at the injection site (average days fluorescence detected)” value [2] is given as 3 days, the “CD4+CD25hi T cells (Tregs)” value (splenocytes) is given as “significantly increases” and the inflammation after injection ([3]; in vivo) is given as “not inflammatory”. For the same molecule, the humoral response ([3]; previous reports) was “no humoral response”, the “internalization seen by confocal microscopy” value (DC2.4 cells) was “minimally internalized” and the “dendritic cell population with nanofiber uptake” value (Dendritic cells) was “about 25%”. For the same molecule, the “local macrophages with nanofiber uptake” value (local macrophages) was roughly 100%, the “IFNγ in lavage fluid” value (mice [4]) was “indistinguishable from PBS” and the “IL1β in lavage fluid” value (mice [4]) was “indistinguishable from PBS”. The “IL6 in lavage fluid” value (mice [4]) was “indistinguishable from PBS”.

In the case of “SSQNSSDKPVAHVVANHQVE-SGSG-QQKFQFQFEQQ (SSQNSSDKPVAHVVANHQVESGSGQQKFQFQFEQQ; Synthetic- TNF-Q11 TNF4-23 linked to (KEYA)20Q11)”, the effect on inflammation ([3]; when a strong B cell response is raised) is given as “effectively reduce inflammation”.

In the case of “XQQKFQFQFEQQ (not fully specified; X: randomised place (mixture)) [(KEYA)1Q11]”, the “induction of antibody and T cell responses” value [5] is reported as “ineffective at inducing immune responses” and the “(KEYA)n-specific IgG antibodies” value (mice [6]; boosted every 2.5 weeks, 14-week experiment) is reported as “no humoral response”.

For “XXXXXXXXXXXXXXXXXXXXQQKFQFQFEQQ [(KEYA)20Q11]”, the “amount retained at the site by radiant efficiency” value [2] was “greater amounts”, the “persists at the injection site and maintains immunogenicity” value [2] was “up to 7 days” and the “persistence at the injection site (average days fluorescence detected)” value [2] was 5 days. For the same molecule, the “induction of antibody and T cell responses” value [5] was “strong antibody and T cell responses”, the “IL4 production by T cells (ELISpot)” value ([5]; week 14, compared with (KEYA)1Q11 or (KEYA)5Q11) was “significantly higher IL4 production” and the footpad swelling (mice [7]) was “no distinguishable swelling”. The “capsule formation around the injected material” value [8] was “little to no capsule formation”, the “CD4+ T cells” value (splenocytes) was “slight reduction” and the “general proliferation of T cells (total percent of CD3+ cells)” value (splenocytes) was “no effect”. For the same molecule, the “percent of IL4+ CD3+ cells” value (splenocytes) was “significantly higher percent”, the “percent of IL4+ CD4+ T cells” value (splenocytes) was “increase” and the “CD4+CD25hi T cells (Tregs)” value (splenocytes) was “increases the production of Tregs”. The “Th2 response indicated by IgG1 versus IgG2c titers” value (mice [6]; week 14) was “strong Th2 response”, the “Type 2 T cell bias upon re-stimulation with p(KEYA)20” value [9] was “statistically higher production of IL4 than IFNγ” and the “internalization seen by confocal microscopy” value (DC2.4 cells) was “abundantly present”. The “T cell response to pNP” value ([10]; 50% (KEYA)20Q11 co-assembled with 50% NP-Q11 versus 0%) was “significantly enhanced”, the “response to re-stimulation with p(KEYA)20” value ([10]; co-assembled with 50% NP-Q11) was “strong response” and the “molar concentration in nanofiber necessary to stimulate a (KEYA)20-specific IgG humoral response” value (mice [11]) was no less than 33%. For the same molecule, the “dendritic cell population with nanofiber uptake” value (Dendritic cells) was “about 60%”, the “local macrophages with nanofiber uptake” value (local macrophages) was roughly 100% and the nanofiber formation [12] was “self-assembles into nanofibers”. The “IFNγ in lavage fluid” value (mice [4]) was “indistinguishable from PBS”, the “IL1β in lavage fluid” value (mice [4]) was “indistinguishable from PBS” and the “IL6 in lavage fluid” value (mice [4]) was “indistinguishable from PBS”. The “IL4 in lavage fluid” value (mice [4]; [13]) was “significantly elevated” and the “IL5 in lavage fluid” value (mice [4]; [13]) was “significantly elevated”.
